Measured values from US10119972B2, “Reactive labelling compounds and uses thereof” (Academia Sinica, priority 2014, dated 2018).
Entries after “also recorded” stand apart in the source; their conditions may differ.

Legend:
[1] = SPAAC reaction kinetics of 101 with benzyl azide monitored by 1H-NMR; type: physicochemical; details: 101 with benzyl azide (1:1), 20 mM, CD3CN, 25° C.
Method: (§1) To evaluate the feasibility of compound 101 as a reagent for the SPAAC-based fluorescence labeling, its reaction scope and kinetics using benzyl azide as a model substrate was first studied. The SPAAC reaction of 101 with benzyl azide in acetonitrile was completed in 2 h at room temperature to give triazole 111 in 95% yield (Scheme 100). The reactivity of 101 with benzyl azide (1:1) in CD3CN was determined by integration of multiple chemical shifts in the ^1H-NMR spectrum to yield a second-order rate constant of 0.012 M^−1s^−1 at 25° C. We also observed the cycloaddition reaction between 101 and N-azidoacetylmannosamine (ManNAz), proceeding similarly to give triazole 112 with a second-order rate constant of 0.010 M^−1s^−1 at 25° C. in a solution of CD3OD-D2O (5:1, v/v) (FIGS. 17 and 18).
(§2) Part A: Compound 101 and benzyl azide were predissolved in CD3CN, and then mixed at equimolar concentration of 20 mM. The reaction was monitored by ^1H-NMR analysis over a period of 1 h. The concentration of each component was determined, based on the concentration of initial compound 101, by integration at multiple chemical shifts in the ^1H-NMR spectrum. […] (M^−1) vs. time (sec), a second order rate constant in unit of M^−1s^−1 was determined using linear regression analysis. […]
FIG. 17 describes a Plot of 1/[101] vs. time for the reaction of compound 101 and benzyl azide in CD3CN as monitored by ^1H-NMR.

[2] = SPAAC reaction kinetics of 101 with N-azidoacetylmannosamine monitored by 1H-NMR; type: physicochemical; details: 20 mM, CD3OD-D2O (5:1, v/v), 25° C.
Method: as §1, with “We also observed the cycloaddition reaction between 101 and N-azidoacetylmannosamine (ManNAz), proceeding similarly to give triazole 112 with a second-order rate constant of 0.010 M^−1s^−1 at 25° C. in a solution of CD3OD-D2O (5:1, v/v) (FIGS. 17 and 18).” left out
as §2, with “B:” for “A:”, “N-azidoacetylmannosamine” for “benzyl azide”, “CD3OD/D2O (5:1, v/v),” for “CD3CN,”
FIG. 18 describes a Plot of 1/[101] vs. time for the reaction of compound 101 and N-azidoacetylmannosamine in a solution of CD3OD-D2O (5:1, v/v) as monitored by ^1H-NMR.

[3] = Absorption and fluorescence spectroscopy under simulated physiological conditions; type: physicochemical; details: PBS buffer containing 10% DMSO, pH 7.4
Method: Formation of triazoles 111 and 112 were accompanied by a significant increase in fluorescence intensity with a large Stokes shift into a standard range for coumarin emission (FIG. 16a).
FIG. 16 describes (a) Absorption and Fluorescence emission spectra (λex=330 nm) of 101 (black), 111 (blue) and 112 (red) (45 μM, PBS buffer containing 10% DMSO, pH 7.4). (b) Time course of normalized fluorescence intensity at 435 nm (λex=330 nm) for the ligation reaction of 101 (30 μM) with N-azidoacetylmannosamine (30 μM) in PBS buffer containing 10% DMSO.

living cells = test: Cytotoxicity of probe in living cells; type: cell-based
[4] = Stability in presence of 3-mercaptopropionic acid by 1H-NMR; type: physicochemical; details: 25 mM in CDCl3 with 3-mercaptopropionic acid (32 mM), 25° C., 24 h
Method: A potential problematic side reaction of cyclooctynes is the addition with proteinic or endogenous thiols to the corresponding vinyl sulfides. To test whether potential non-specific stainings of 101 and the corresponding triazole 111 may occur due to additions of the SH groups to the triple bond or double bond by proteinic or endogenous thiols, the experiment was performed by incubation of 101 and 111 with 3-mercaptopropionic acid in CDCl3 (FIGS. 25 and 26).
A solution of compound 101 and compound 111 (25 mM in CDCl3) was incubated with a solution of 3-mercaptopropionic acid (32 mM in CDCl3) at room temperature (25° C.).
FIG. 25 show ^1H-NMR spectrum in CDCl3 of compound 101 and 3-mercaptopropionic acid alone, and ^1H-NMR spectrum of compound 101 was treated with 3-mercaptopropionic acid at 25° C. for 0 h, 2 h and 24 h.

O=c1ccc2cc3c(cc2o1)C#CCCCC3 [Compound 101, 6,7,8,9-Tetrahydro-10,11-didehydro-cycloocta[g]chromen-2(2H)-one]
second-order rate constant [1]: 0.012 M⁻¹ s⁻¹
second-order rate constant [2]: 0.010 M⁻¹ s⁻¹
Absorption (λmax, nm) [3]: 336 nm
Stokes shift [3]: 5070 cm⁻¹
Emission (λmax, nm) ([3]; excitation at 330 nm): 405 nm
ε (M^−1cm^−1), extinction coefficient ([3]; measured at 340 nm): 7800 M⁻¹ cm⁻¹
Φf, fluorescence quantum yield ([3]; quinine sulfate (Φf = 0.54 ± 0.03) as standard): 0.011
cytotoxicity (living cells): low cytotoxicity; also recorded: nontoxic
thiol-yne or thiol-ene addition / stability in the presence of thiols [4]: inactive; also recorded: high stability
